Source: the CheMixHub viscosity set
± gives the uncertainty stated by the source.

Test: xn = mol fraction of the nth substance listed
Settings: 101 kPa

CCCCCCCCO + CC1COC(=O)O1
298.15 K
Settings	viscosity [mPa·s]
x2 = 0.0305	5.992 ± 0.034
x2 = 0.0991	5.607 ± 0.033
x2 = 0.1708	5.253 ± 0.031
x2 = 0.2441	4.915 ± 0.029
x2 = 0.3107	4.627 ± 0.028
x2 = 0.4055	4.245 ± 0.026
x2 = 0.4882	3.938 ± 0.024
x2 = 0.5632	3.679 ± 0.022
x2 = 0.6277	3.469 ± 0.021
x2 = 0.7091	3.222 ± 0.02
x2 = 0.7824	3.015 ± 0.018
x2 = 0.8415	2.857 ± 0.018
x2 = 0.9046	2.698 ± 0.017
x2 = 0.971	2.54 ± 0.016

CCN(CC)CCO.Cl + OCCO
viscosity [mPa·s]
Settings	293.15 K	298.15 K	303.15 K	308.15 K	313.15 K	318.15 K	323.15 K
x1 = 0.25	37.6 ± 3	–	29.6 ± 2.4	–	23.6 ± 1.9	–	19.1 ± 1.5
x1 = 0.333	–	50.45 ± 1	40.68 ± 0.9	32.04 ± 0.7	26.28 ± 0.57	21.97 ± 0.48	18.51 ± 0.4

O=S(=O)([N-]S(=O)(=O)C(F)(F)F)C(F)(F)F.OCCNCCO.[Li+] + O
viscosity [mPa·s]
Settings	313.15 K	318.15 K	323.15 K
x1 = 0.03	2.3 ± 0.15	1.83 ± 0.12	1.52 ± 0.1
x1 = 0.0601	4.57 ± 0.34	3.78 ± 0.27	3.28 ± 0.21
x1 = 0.0999	13.16 ± 0.96	10.06 ± 0.65	7.95 ± 0.45
x1 = 0.1922	61.51 ± 2.1	40.94 ± 1.4	28.08 ± 0.93
x1 = 0.2941	156.6 ± 12	98.53 ± 4.9	65.24 ± 1.9
x1 = 0.4028	299.2 ± 36	187.7 ± 17	123.7 ± 7.8
x1 = 0.4989	451.2 ± 67	285 ± 34	192.2 ± 18
x1 = 0.5999	629.9 ± 110	408.1 ± 58	281.1 ± 33
x1 = 0.7015	835.5 ± 160	557.5 ± 91	393.6 ± 55
x1 = 0.803	1078 ± 220	736.7 ± 130	530 ± 85
x1 = 0.9011	1370 ± 310	952.3 ± 190	694.7 ± 120
